Experiments:
[1] = tested on: A549 human lung carcinoma cells; experiment: Soft agar assay (anchorage independent growth), A549 cells; type: cell-based; conditions: single 24 hour treatment at 4 mM, colonies counted 21 days after plating
Procedure: (§1) For analysis of growth in soft agar, 3 ×10^3 cells were seeded in triplicate onto a six well dish in 4 ml of complete medium containing 0.33% agar solution at 37° C. (34). Cells were fed with 2 ml of medium twice weekly. The assay was performed in triplicate, and colonies were counted 21 days after plating for A549 cells, and 7 days after plating for HEK 293 cells.
(§2) AdoMetinhibits the tumorigenic properties of two different transformed cells lines, A549 human lung carcinoma cells and HEK 293 human embryonal kidney cells—It is well documented that a correlation exists between reduced intracellular AdoMet (either as a consequence of decreased folate intake or pharmacological intervention) and an increase in cell proliferation and tumorigenesis (2, 19). […] We therefore decided to test whether treatment with AdoMet could inhibit the transformation potential of HEK 293 cells, which were shown here to be responsive to AdoMet inhibition of demethylase. We also tested AdoMet effects on the transformed state of A549, a human lung non-small cell carcinoma cell line, to exclude the possibility that AdoMet effects are an idiosyncrasy of HEK 293 cells. Cells were treated for 24 hours with either AdoMet or AdoHcy at a concentration of 4 mM. An equal number of living cells were seeded onto soft agar to test their anchorage independent growth, an indicator of tumorigenesis in vitro. […]

[2] = tested on: HEK 293 human embryonal kidney cells; experiment: Soft agar assay (anchorage independent growth), HEK 293 cells; type: cell-based; conditions: single 24 hour treatment at 4 mM, colonies counted 7 days after plating
Procedure: as §1, §2

human MBD2/dMTase = target: T1, human MBD2/dMTase (Homo sapiens, UniProt Q9UBB5); experiment: In vitro demethylation assay with recombinant MBD2/dMTase; type: biochemical; conditions: for conversion of methyl-dCMP to dCMP by MBD2/dMTase: 24 hours at 37° C.
T1 construct: made in house; host or cells: SF9 insect cells (baculovirus, transfer vector pBlueBacHis2 C)
Procedure: AdoMet preparations for in vitro studies—AdoMet was prepared as a 50 mM solution in distilled water either by freeze drying a 32 mM AdoMet solution, which contained 10% ethanol and 5 mM sulfuric acid (New England Biolabs) immediately before use or by dissolving lyophilized powder (SIGMA) in distilled water. To control for possible nonspecific effects of remnants of the AdoMet storage buffer we freeze dried a solution of 5 mM sulfuric acid and 10% ethanol under the same conditions as done with the AdoMet solution and added distilled water after lyophilizing. AdoHcy was purchased from SIGMA and dissolved in distilled water at a 50 mM concentration.
Purification of recombinant MBD2/dMTase from SF9 cells—A fragment containing human MBD2/dMTase was excised from pCR2.1-dMTase (10) with BamHI and XhoI and transferred to the Baculovirus expression transfer vector pBlueBacHis2 C (Invitrogen). PBlueBacHis2 C-MBD2/dMTase and Bac-N-Blue viral DNA were co-transfected into the SF9 insect cell line, and recombinant viruses were isolated, identified and amplified according to the manufacturer's protocol (Invitrogen) with no modifications. High titer P3 viral stocks were used for infections. Insect SF9 cells were cultured in spinner flasks to a density of 2.5×10^6 cells/ml in Grace's Insect Cell Culture Medium Supplemented (1×) from Life Technologies. For infection, 5×10^6 cells were plated in 10 cm tissue culture plates (Sarstedt) and allowed to settle and attach for 30 minutes. The culture medium was removed and was replaced with 10 ml of the same medium containing MBD2/dMTase virus at a multiplicity of infection of 10. The cells were cultured with the virus for 5 days at 27° C. and were then harvested by scraping in cold phosphate buffered saline. Cell pellets from 10 plates were frozen and kept at −70° C. until they were used for enzyme purification. Frozen pellets were thawed in 5 ml of lysis buffer (10 mM Tris-HCl pH 8.0, 5 mM MgCl2, 500 mM NaCl, 0.05% Tween 20, 10% glycerol and 10 mM imidazole) containing 1 μg/ml of the following protease inhibitors: aprotinin, leupeptin and pefablock. Protease inhibitors were added to all the solutions used in the purification. The homogenates were subjected to two cycles of freezing and thawing (5 minutes per step). DNA in the homogenate was sheered by passing through a 18.5 gauge needle 10 times. The extracts were then subjected to 15 cycles of sonication (10 seconds burst, 10 seconds gap per cycle at 20% of maximal output). The extracts were centrifuged at 10,000×g for 35 minutes. The supernatant was transferred into a fresh tube and was recentrifuged for additional 25 minutes at 15,000×g. The extract was filtered through a 5 micron filter to remove any particulate matter and the buffer was exchanged on a PD-10 buffer exchange column (Amersham Pharmacia) with buffer L (10 mM Tris-HCl pH 8.0, 10 mM MgCl2) containing 50 mM NaCl. Recombinant MBD2/dMTase was partially purified by Q-sepharose (Pharmacia) ion exchange chromatography. Q-sepharose beads (1 ml of swollen beads) were washed extensively and preequilibrated with buffer L containing 50 mM NaCl and divided into 3 equal aliquots. The cell extracts were sequentially bound three times to the 3 aliquots of Q-sepharose beads in batch in 15 ml tubes by shaking gently on a Nutator for 45 minutes at 4° C. […]

[3] = tested on: endogenous demethylase activity; experiment: Active demethylation of in vitro methylated CMV-GFP transiently transfected into HEK 293 cells (HpaII/MspI digestion, Southern blot); conditions: for percentage of methylated GFP remaining (inhibition of TSA induced active demethylation of methylated CMV-GFP): 0.3 μM TSA, 2, 4, 8 mM compound, harvested 72 hours post transfection
[4] = tested on: CMV-GFP expression in HEK 293 cells; experiment: GFP expression from transfected CMV-GFP in HEK 293 cells (Western blot); conditions: for TSA induced GFP expression of methylated CMV-GFP: 0.3 μM TSA, increasing amounts of compound (mM)

T1 sequence (Q9UBB5 150-411 limits assumed): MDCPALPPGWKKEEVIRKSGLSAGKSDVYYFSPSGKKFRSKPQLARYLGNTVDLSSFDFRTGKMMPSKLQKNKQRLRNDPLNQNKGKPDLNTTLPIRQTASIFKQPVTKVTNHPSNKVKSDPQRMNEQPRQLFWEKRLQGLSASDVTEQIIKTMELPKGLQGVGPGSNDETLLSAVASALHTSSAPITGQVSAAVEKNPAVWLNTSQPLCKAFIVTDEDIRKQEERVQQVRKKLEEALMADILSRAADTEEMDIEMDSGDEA

Row | Compound | colony formation in soft agar (anchorage independent growth) [1] | colony formation in soft agar (anchorage independent growth) [2] | effect of AdoHcy on inhibition of the demethylase reaction by AdoMet (competition experiment) (human MBD2/dMTase; increasing AdoHcy in presence of 10 mM AdoMet, up to tenfold concentration excess of AdoHcy) | inhibition of demethylation activity of MBD2/dMTase (human MBD2/dMTase; increasing concentrations of AdoHcy) | percentage of methylated GFP remaining (inhibition of TSA induced active demethylation of methylated CMV-GFP) ([3]; methylated CMV-GFP) | TSA induced GFP expression of methylated CMV-GFP ([4]; methylated CMV-GFP) | conversion of methyl-dCMP to dCMP by MBD2/dMTase (human MBD2/dMTase; 2 mM AdoMet) | conversion of methyl-dCMP to dCMP by MBD2/dMTase (human MBD2/dMTase; AdoMet concentrations higher than 4 mM) | inhibition of demethylation attained (human MBD2/dMTase; maximum inhibition on dose curve, average of 3 independent experiments) | de novo methylation of unmethylated CMV-GFP ([3]; unmethylated CMV-GFP, 8 mM AdoMet) | induction of non-methylated GFP by TSA ([4]; unmethylated CMV-GFP, 0.3 μM TSA plus AdoMet) | demethylation of methylated CMV-GFP by endogenous demethylase activity ([3]; methylated CMV-GFP, 0.3 μM TSA alone) | GFP expression of methylated CMV-GFP ([4]; methylated CMV-GFP, TSA alone)
1 | Nc1ncnc2c1ncn2[C@@H]1O[C@H](CSCC[C@H](N)C(=O)O)[C@@H](O)[C@H]1O [AdoHcy, S-adenosylhomocysteine] | does not inhibit | does not inhibit | does not diminish inhibition | no inhibition | insignificant effect | no significant effect | – | – | – | – | – | – | –
2 | C[S+](CC[C@H](N)C(=O)[O-])C[C@H]1O[C@@H](n2cnc3c(N)ncnc32)[C@H](O)[C@@H]1O (some centres unmarked) [AdoMet, S-Adenosylmethionine] | no colonies are formed | only a minimal number of colonies | – | – | increases in a dose dependent manner | decreased in a dose dependent fashion | greatly reduced | abolished completely | 100% | does not get de novo methylated | no significant effect | – | –
3 | CC(/C=C/C(=O)NO)=C\[C@@H](C)C(=O)c1ccc(N(C)C)cc1 [TSA, Trichostatin A] | – | – | – | – | – | – | – | – | – | – | – | nearly complete demethylation | dramatic induction

Source: US20050003378A1, “Inhibitor of demethylase, antitumorigenic agent, and an in vitro assay for demethylase inhibitors” (priority 2002, published 2005)
